Source: patent US10005750B2, “Developing potent urate transporter inhibitors: compounds designed for their uricosuric action” (priority 2010, dated 2018)

Assays:
[1] = molecular target: T1, hURAT1 (Homo sapiens, UniProt Q96S37); assay: MDCK-hURAT1 data (Endou and Olkawa, 2009); assay type: cell-based; design: expressed in transfected cells; details: 8 versus 7, MDCK-hURAT1 data
T1 sequence (Q96S37 1-553): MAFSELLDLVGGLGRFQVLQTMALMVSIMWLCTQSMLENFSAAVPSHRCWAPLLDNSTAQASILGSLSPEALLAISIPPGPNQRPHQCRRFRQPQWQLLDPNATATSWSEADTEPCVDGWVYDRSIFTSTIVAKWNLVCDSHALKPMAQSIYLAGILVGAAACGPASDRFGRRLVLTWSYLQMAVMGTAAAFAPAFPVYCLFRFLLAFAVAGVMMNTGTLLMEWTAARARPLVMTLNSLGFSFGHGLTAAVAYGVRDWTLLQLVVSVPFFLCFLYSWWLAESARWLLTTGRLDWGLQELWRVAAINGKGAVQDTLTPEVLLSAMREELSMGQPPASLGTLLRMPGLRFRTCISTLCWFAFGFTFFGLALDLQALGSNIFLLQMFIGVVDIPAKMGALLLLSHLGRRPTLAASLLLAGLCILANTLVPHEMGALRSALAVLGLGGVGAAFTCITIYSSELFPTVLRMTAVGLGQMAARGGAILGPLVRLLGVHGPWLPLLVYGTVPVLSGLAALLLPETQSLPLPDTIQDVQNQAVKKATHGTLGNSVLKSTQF

[2] = molecular target: T1, hURAT1; design: expressed in transfected cells; host or cells: Xenopus laevis oocytes injected with capped cRNA; details: previous results of the applicants' laboratories; cited from earlier work
[3] = molecular target: T1, hURAT1; assay: [14C]urate uptake inhibition in Xenopus oocytes expressing hURAT1; assay type: cell-based; design: expressed in transfected cells; host or cells: Xenopus laevis oocytes injected with capped cRNA; details: 60 min; for IC50: 14C-uric acid uptake; for 14C-urate transport inhibition: test compound at 50 μM
Description: cRNA synthesis and oocyte injection. The hURATv1 (pCMV6-XL5) plasmids were linearized with XbaI and hURAT2 (pCMV-SPORT6) plasmids were linearized with XhoI. The cRNAs were synthesized in vitro with T7 RNA polymerase (for hURATv1) or SP6 RNA polymerase (for hURAT2) using mMessage mMachine® High yield capped RNA transcription kit (Ambion, Austin, Tex., USA). The polyadenylation of cRNA at 3′-end was performed using poly(A) tailing kit (Ambion, Austin, Tex., USA). Female Xenopus frogs (African clawed frogs; 95-120 g) were purchased from Sato Zoushoku (Chiba, Japan) and nurtured in tap water (19±3° C.). […] The oocytes were washed in Ca^2+-free solution and transferred to ND96 solution (96.0 mM NaCl, 2.0 mM KCl, 1.0 mM CaCl2, 1.0 mM MgCl2.6H2O and 5.0 mM HEPES, pH 7.5). Defolliculated Xenopus oocytes (stage 1V and V) were injected with 25 ng of capped cRNA and incubated at 18° C. for 2-3 days in ND96 solution containing gentamicin (50 μg/ml) and 2.5 mM sodium pyruvate.
Inhibition study. After incubation of cRNA-injected oocytes (2-3 days), uptake experiments were performed at room temperature in ND96 solution. […] The uptake was terminated by washing the oocytes with ice-cold uptake solution (5 times @ 1.0 ml each) after 60 min of incubation. The oocytes were solubilized with 5% (w/v) SDS and the radioactivity content determined using liquid scintillation counter (Aloka 3100; Aloka Co., Ltd. Tokyo, Japan). The urate uptake by non-injected (control) oocytes was subtracted from oocytes expressing hURAT1, hURATv1 or hURAT2. The data are presented and reported as the % inhibition. The IC50 data were conducted using different compound concentrations.
We conducted a general screen where ^14C-uric acid ([…]) and test compound (50 μM) were placed in the extracellular fluid. Radioactivity inside the oocyte was analyzed after 60 min. […] The IC50 values were generated using a sigmoidal dose-response (variable slope) relationship.

[4] = oral; 7 (100 mg/kg) versus 4 (300 mg/day) or 5 (1000 mg/day); cited from earlier work
[5] = tested on: hURAT1, hURAT2, and hURATv1; assay: combined % inhibition of urate transport in oocytes expressing hURAT1, hURAT2 or hURATv1; assay type: cell-based, human; details: sum over the three transporters
Description: cRNA synthesis and oocyte injection. The hURATv1 (pCMV6-XL5) plasmids were linearized with XbaI and hURAT2 (pCMV-SPORT6) plasmids were linearized with XhoI. The cRNAs were synthesized in vitro with T7 RNA polymerase (for hURATv1) or SP6 RNA polymerase (for hURAT2) using mMessage mMachine® High yield capped RNA transcription kit (Ambion, Austin, Tex., USA). The polyadenylation of cRNA at 3′-end was performed using poly(A) tailing kit (Ambion, Austin, Tex., USA). Female Xenopus frogs (African clawed frogs; 95-120 g) were purchased from Sato Zoushoku (Chiba, Japan) and nurtured in tap water (19±3° C.). Oocytes (1.23±0.10 mg/oocyte) isolated from Xenopus laevis were defolliculated with 1.0 mg/ml collagenase in Ca^2+-free solution (96.0 mM NaCl, 2.0 mM KCl, 1.0 mM MgCl2.6H2O and 5.0 mM HEPES, pH 7.5) at 25+2° C. for 2.0 h. The oocytes were washed in Ca^2+-free solution and transferred to ND96 solution (96.0 mM NaCl, 2.0 mM KCl, 1.0 mM CaCl2, 1.0 mM MgCl2.6H2O and 5.0 mM HEPES, pH 7.5). Defolliculated Xenopus oocytes (stage 1V and V) were injected with 25 ng of capped cRNA and incubated at 18° C. for 2-3 days in ND96 solution containing gentamicin (50 μg/ml) and 2.5 mM sodium pyruvate.
Inhibition study. […] The oocytes were solubilized with 5% (w/v) SDS and the radioactivity content determined using liquid scintillation counter (Aloka 3100; Aloka Co., Ltd. Tokyo, Japan). […]

## CCc1oc2cc(O)ccc2c1C(=O)c1cc(Br)c(O)c(Br)c1 [Compound 8, (3,5-dibromo-4-hydroxyphenyl)(2-ethyl-6-hydroxy-benzofuran-3-yl)methanone]
[1]
  fold difference: 5.7 fold
[2]
  hURAT1 inhibitor properties: potent
[3]
  IC50: 0.138 µM

## CCc1oc2cc(O)ccc2c1C(=O)c1ccc(OC)cc1 [Compound 31, (2-Ethyl-6-hydroxybenzofuran-3-yl)(4-methoxyphenyl)methanone]
[3]
  IC50: > 50 µM

## CCc1oc2ccccc2c1C(=O)c1ccc(OC)cc1 [Compound 12, (2-Ethylbenzofuran-3-yl)(4-methoxyphenyl)methanone]
[3]
  14C-urate transport inhibition: weak-to-no

## CCc1oc2ccccc2c1C(=O)c1cc(Br)c(O)c(Br)c1 [Compound 7, (3,5-Dibromo-4-hydroxyphenyl)(2-ethylbenzofuran-3-yl)methanone]
[2]
  hURAT1 inhibitor properties: potent
[4]
  physiological effect (lowers urate level): greater physiological effect

## CCc1oc2ccccc2c1C(=O)c1cc(Br)c(OC)c(Br)c1 [Compound 85, (3,5-Dibromo-4-methoxyphenyl)(2-ethylbenzofuran-3-yl)methanone]
[5]
  combined % inhibition for hURAT1, hURAT2, and hURATv1: < 160%

## CCc1cc2cc(O)cc(C(=O)c3cc(Br)c(O)c(Br)c3)c2o1 [Compound 44, (3,5-Dibromo-4-hydroxyphenyl)(2-ethyl-5-hydroxybenzofuran-7-yl)methanone]
[3]
  IC50: 0.287 µM

## CCc1cc2cc(OC)cc(C(=O)c3cc(Br)c(O)c(Br)c3)c2o1 [Compound 43]
[3]
  IC50: 1.44 µM

## CCc1oc2cc(OC)ccc2c1C(=O)c1ccc(O)cc1 [Compound 30, (2-Ethyl-6-methoxybenzofuran-3-yl)(4-hydroxyphenyl)methanone]
[3]
  IC50: 3.9 µM

## CCc1oc2ccccc2c1C(=O)c1ccc(O)cc1 [Compound 13, (2-Ethylbenzofuran-3-yl)(4-hydroxyphenyl)methanone, reference compound]
[3]
  IC50: 2.8 µM

## CCc1oc2c(OC)cccc2c1C(=O)c1ccc(OC)cc1 [Compound 19, (2-Ethyl-7-methoxybenzofuran-3-yl)(4-methoxyphenyl)methanone]
[3]
  14C-urate transport inhibition: weak inhibition

## CCc1oc2cc(O)ccc2c1C(=O)c1ccc(O)cc1 [Compound 32, (2-ethyl-6-hydroxybenzofuran-3-yl)(4-hydroxyphenyl)methanone]
[3]
  IC50: 1.1 µM

## CCc1oc2ccc(OC)cc2c1C(=O)c1ccc(OC)cc1 [Compound 14, (2-Ethyl-5-methoxybenzofuran-3-yl)(4-methoxyphenyl)methanone]
[3]
  14C-urate transport inhibition: weak inhibition
